Results taken from patent US10689354B2, “Aminoazole derivative” (Teijin Pharma Limited, priority 2015, dated 2020).

How the values were obtained:
[1] = biological target: T1, androgen receptor (AR-LBD) (Rattus norvegicus, UniProt P15207); assay: Evaluation of androgen receptor affinity (PolarScreen Androgen Receptor Competitor Assay Kit, Red; fluorescence polarization); settings: 22° C. for 5 hours, relative to binding rate of 1 μM DHT, read-out: AR affinity (pEC50) (converted)
T1 construct: 5 μL of 2×AR-LBD/Fluoromone AL Red Complex contained in the kit; purchased Invitrogen
T1 sequence (P15207 651-882 limits assumed): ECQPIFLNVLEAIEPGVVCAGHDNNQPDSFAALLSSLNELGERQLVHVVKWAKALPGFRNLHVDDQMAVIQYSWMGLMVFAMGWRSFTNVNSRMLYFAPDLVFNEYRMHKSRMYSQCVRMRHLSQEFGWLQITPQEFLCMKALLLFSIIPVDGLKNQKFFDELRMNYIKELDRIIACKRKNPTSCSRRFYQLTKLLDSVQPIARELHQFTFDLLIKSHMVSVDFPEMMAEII
How it was run: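 Fluorescence polarization competition assay: compound was incubated in duplicate with the kit's AR-LBD/Fluoromone AL Red complex for 5 h at 22 °C. Binding was expressed relative to 1 μM DHT, and pEC50 was derived by 4-parameter fit.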

[2] = biological target: T2, human androgen receptor (Homo sapiens, UniProt P10275); assay: Reporter assay of an androgen receptor responsive sequence (luciferase, transiently transfected HEK293 cells); type: cell-based; settings: 24 hours incubation, relative to activity of 100 nM DHT, read-out: AR transcriptive activity (pEC50) (converted)
T2 construct: expressed in transfected cells; host or cells: HEK293
T2 sequence (P10275 1-920): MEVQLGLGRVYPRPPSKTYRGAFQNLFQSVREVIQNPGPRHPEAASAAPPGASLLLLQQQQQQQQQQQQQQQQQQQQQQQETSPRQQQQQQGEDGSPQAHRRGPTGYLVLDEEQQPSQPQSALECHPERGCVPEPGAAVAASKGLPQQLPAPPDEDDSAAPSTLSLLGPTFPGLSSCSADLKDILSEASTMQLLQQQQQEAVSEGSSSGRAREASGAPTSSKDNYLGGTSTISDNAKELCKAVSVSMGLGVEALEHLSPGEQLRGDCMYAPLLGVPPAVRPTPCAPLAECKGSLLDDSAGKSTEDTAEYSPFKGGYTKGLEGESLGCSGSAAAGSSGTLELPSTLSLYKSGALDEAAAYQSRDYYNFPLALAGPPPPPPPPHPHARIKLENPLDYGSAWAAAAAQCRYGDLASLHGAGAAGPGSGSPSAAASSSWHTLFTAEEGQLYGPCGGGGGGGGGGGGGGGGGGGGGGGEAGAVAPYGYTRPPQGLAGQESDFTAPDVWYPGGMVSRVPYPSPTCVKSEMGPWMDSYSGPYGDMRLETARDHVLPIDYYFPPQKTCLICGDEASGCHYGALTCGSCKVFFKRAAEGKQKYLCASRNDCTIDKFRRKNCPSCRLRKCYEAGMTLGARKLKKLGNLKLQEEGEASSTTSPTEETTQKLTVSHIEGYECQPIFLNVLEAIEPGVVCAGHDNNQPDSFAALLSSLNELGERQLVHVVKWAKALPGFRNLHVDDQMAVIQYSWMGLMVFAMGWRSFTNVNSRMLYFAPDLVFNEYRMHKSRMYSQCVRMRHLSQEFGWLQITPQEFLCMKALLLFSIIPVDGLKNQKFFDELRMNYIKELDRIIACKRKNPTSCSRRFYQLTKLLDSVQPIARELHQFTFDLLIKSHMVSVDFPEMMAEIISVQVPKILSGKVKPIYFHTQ
Description: Reporter Assay of an Androgen Receptor Responsive Sequence
To examine the agonist activity of compounds for androgen, a reporter assay using an androgen receptor responsive sequence was conducted.
Using Lipofectamine 2000 (Invitrogen), a plasmid mixture (pGL4-ARE (200 ng/well), pcDNA3-hAR (20 ng/well), pRL-TK (Promega) (150 ng/well)) was transiently transfected into HEK293 cells. The contents of the plasmid (mixture) are as follows:
pGL4-ARE is a reporter plasmid containing firefly luciferase sequence under the control of androgen receptor responsive sequence; pcDNA3-hAR is a plasmid containing full-length sequence of human androgen receptor under the constant control of CMV promoter; pRL-TK is a plasmid containing Renilla Luciferase sequence under the control of herpes simplex virus thymidine kinase and used as an internal standard for evaluations of transfection efficiency and compound toxicity.
After the incubation of Lipofectamine 2000 and the plasmid mixture in Opti-MEM for 20 minutes, the mixture was mixed with a cell suspension prepared with Opti-MEM in the similar way, and the cell suspension was plated to a 96-well plate at 20000 cells/well. The transfection was conducted by incubating the plates under the condition of 5% CO2 at 37° C. for 3 hours. Three hours after the transfection, the culture medium was removed and a compound solution prepared by DMEM supplemented with 5% FBS and treated with charcoal was added, and the mixture was incubated under the condition of 5% CO2 at 37° C. for 24 hours. After the incubation with the compound, luciferase activities were measured with a luminometer using Dual-Glo™ Luciferase Assay System (Promega). The measurement of the luciferase activities was performed in accordance with the protocol recommended by Promega. The activity of the compound was determined by comparing to the activity of 100 nM of DHT, and quantified the logarithm value (pEC50) of reciprocal value of the effective concentration of the compound which is equal to 50% of the activity value by applying a 4 parameter goodness-of-fit calculation.

Row | Structure (SMILES) | EC50 [1] [nM] | EC50 [2] [nM]
1 | Cc1sc(N(Cc2ccc(C#N)cc2)c2ccc(C#N)cc2)nc1C(=O)NS(C)(=O)=O [Compound 10, 2-[4-cyano-N-[(4-cyanophenyl)methyl]anilino]-5-methyl-N-methylsulfonyl-thiazole-4-carboxamide] | 126 | 1000
2 | CSc1ccc(CN(c2ccc(C#N)cc2)c2nc(C(=O)NS(C)(=O)=O)c(C)s2)cc1 [Compound 11, 2-[4-cyano-N-[(4-methylsulfanylphenyl)methyl]anilino]-5-methyl-N-methylsulfonyl-thiazole-4-carboxamide] | 25.1 | 50.1
3 | Cc1sc(N(Cc2ccc(S(C)(=O)=O)cc2)c2ccc(C#N)cc2)nc1C(=O)NS(C)(=O)=O [Compound 12, 2-[4-cyano-N-[(4-methylsulfonylphenyl)methyl]anilino]-5-methyl-N-methylsulfonyl-thiazole-4-carboxamide] | 316 | > 10000
4 | Cc1sc(N(Cc2ccccc2F)c2ccc(C#N)cc2)nc1C(=O)NS(C)(=O)=O [Compound 13, 2-[4-cyano-N-[(2-fluorophenyl)methyl]anilino]-5-methyl-N-methylsulfonyl-thiazole-4-carboxamide] | 50.1 | 316
5 | Cc1sc(N(Cc2cccc(F)c2)c2ccc(C#N)cc2)nc1C(=O)NS(C)(=O)=O [Compound 14, 2-[4-cyano-N-[(3-fluorophenyl)methyl]anilino]-5-methyl-N-methylsulfonyl-thiazole-4-carboxamide] | 79.4 | 50.1
6 | Cc1sc(N(Cc2ccc(F)cc2)c2ccc(C#N)cc2)nc1C(=O)NS(C)(=O)=O [Compound 15, 2-[4-cyano-N-[(4-fluorophenyl)methyl]anilino]-5-methyl-N-methylsulfonyl-thiazole-4-carboxamide] | 63.1 | 39.8
7 | Cc1cccc(CN(c2ccc(C#N)cc2)c2nc(C(=O)NS(C)(=O)=O)c(C)s2)c1 [Compound 16, 2-[4-cyano-N-(m-tolylmethyl)anilino]-5-methyl-N-methylsulfonyl-thiazole-4-carboxamide] | 25.1 | 31.6
8 | Cc1ccc(CN(c2ccc(C#N)cc2)c2nc(C(=O)NS(C)(=O)=O)c(C)s2)cc1 [Compound 17, 2-[4-cyano-N-(p-tolylmethyl)anilino]-5-methyl-N-methylsulfonyl-thiazole-4-carboxamide] | 25.1 | 25.1
9 | Cc1sc(N(Cc2cccc(Cl)c2)c2ccc(C#N)cc2)nc1C(=O)NS(C)(=O)=O [Compound 18, 2-[N-[(3-chlorophenyl)methyl]-4-cyano-anilino]-5-methyl-N-methylsulfonyl-thiazole-4-carboxamide] | 25.1 | 50.1
10 | Cc1sc(N(CC2CCCC2)c2ccc(C#N)cc2)nc1C(=O)NS(C)(=O)=O [Compound 19, 2-[4-cyano-N-(cyclopentylmethyl)anilino]-5-methyl-N-methylsulfonyl-thiazole-4-carboxamide] | 158 | > 10000
11 | Cc1sc(N(CCOc2ccccc2)c2ccc(C#N)cc2)nc1C(=O)NS(C)(=O)=O [Compound 20, 2-[4-cyano-N-(2-phenoxyethyl)anilino]-5-methyl-N-methylsulfonyl-thiazole-4-carboxamide] | 63.1 | 1580
12 | Cc1sc(N(Cc2ccc(Cl)cc2)c2ccc(C#N)cc2)nc1C(=O)NS(C)(=O)=O [Compound 23, 2-[N-[(4-chlorophenyl)methyl]-4-cyano-anilino]-5-methyl-N-methylsulfonyl-thiazole-4-carboxamide] | 63.1 | 25.1
13 | Cc1sc(N(Cc2cccc(C(F)(F)F)c2)c2ccc(C#N)cc2)nc1C(=O)NS(C)(=O)=O [Compound 24, 2-[4-cyano-N-[[3-(trifluoromethyl)phenyl]methyl]anilino]-5-methyl-N-methylsulfonyl-thiazole-4-carboxamide] | 20 | 200
14 | Cc1sc(N(Cc2ccc3ccccc3c2)c2ccc(C#N)cc2)nc1C(=O)NS(C)(=O)=O [Compound 25, 2-[4-cyano-N-(2-naphthylmethyl)anilino]-5-methyl-N-methylsulfonyl-thiazole-4-carboxamide] | 25.1 | 50.1
15 | Cc1sc(N(Cc2ccc3occc3c2)c2ccc(C#N)cc2)nc1C(=O)NS(C)(=O)=O [Compound 26, 2-[N-(benzofuran-5-ylmethyl)-4-cyano-anilino]-5-methyl-N-methylsulfonyl-thiazole-4-carboxamide] | 63.1 | 25.1
16 | Cc1sc(N(Cc2ccccc2)c2ccc(Cl)cc2)nc1C(=O)NS(C)(=O)=O [Compound 31, 2-(N-benzyl-4-chloro-anilino)-5-methyl-N-methylsulfonyl-thiazole-4-carboxamide] | 100 | 2510
17 | Cc1sc(N(Cc2ccccc2)c2ccc(OC(F)(F)F)cc2)nc1C(=O)NS(C)(=O)=O [Compound 34, 2-[N-benzyl-4-(trifluoromethoxy)anilino]-5-methyl-N-methylsulfonyl-thiazole-4-carboxamide] | 63.1 | 3160
18 | Cc1sc(N(Cc2ccccc2)c2ccc(Cl)c(Cl)c2)nc1C(=O)NS(C)(=O)=O [Compound 37, 2-(N-benzyl-3,4-dichloro-anilino)-5-methyl-N-methylsulfonyl-thiazole-4-carboxamide] | 50.1 | 1260
19 | Cc1sc(N(CC2CCC(F)(F)CC2)c2ccc(C#N)cc2)nc1C(=O)NS(C)(=O)=O [Compound 39, 2-[4-cyano-N-[(4,4-difluorocyclohexyl)methyl]anilino]-5-methyl-N-methylsulfonyl-thiazole-4-carboxamide] | 251 | 1260
20 | Cc1nc(CN(c2ccc(C#N)cc2)c2nc(C(=O)NS(C)(=O)=O)c(C)s2)cs1 [Compound 40, 2-[4-cyano-N-[(2-methylthiazol-4-yl)methyl]anilino]-5-methyl-N-methylsulfonyl-thiazole-4-carboxamide] | 1000 | 501
21 | Cc1sc(N(Cc2ccc(OC(F)F)cc2)c2ccc(C#N)cc2)nc1C(=O)NS(C)(=O)=O [Compound 41, 2-[4-cyano-N-[[4-(difluoromethoxy)phenyl]methyl]anilino]-5-methyl-N-methylsulfonyl-thiazole-4-carboxamide] | 31.6 | 31.6
22 | Cc1ccccc1CN(c1ccc(C#N)cc1)c1nc(C(=O)NS(C)(=O)=O)c(C)s1 [Compound 45, 2-[4-cyano-N-(o-tolylmethyl)anilino]-5-methyl-N-methylsulfonyl-thiazole-4-carboxamide] | 158 | 501
